In US20050197350A1, “Novel quinoline, tetrahydroquinazoline, and pyrimidine derivatives and methods of treatment related to the use thereof” (TAISHO PHARMACEUTICAL CO., LTD., priority 2003, published 2005) one finds class data, which are given here for 14 compounds.

This assay has as its system MCH receptors. Put plainly: MCH receptor activity class (method not given).
The mark [1] stands for this setting: class by percent of control at 10^-7 M or IC50.
Setting [2] is: activity class 1-3: percent of control at 10^-7 M or IC50.
[3] abbreviates: class by percent of control at 10^−7 M or IC50.
Where [4] appears, read: MCH receptor activity class 1-3 (percent of control at 10^-7 M or IC50).

For the compound `CN(C)c1nc(N[C@H]2CC[C@@H](NC(=O)Nc3ccccc3[N+](=O)[O-])CC2)nc2c1CCCC2` [compound 1717], the class under setting [1] is 3 (Class 3 The value of percent of control at 10^−7 M was more than 60% or the value of IC50 was more than 200 nM.).
As for `COc1ccc(CC(=O)N[C@H]2CC[C@@H](Nc3nccc(N(C)C)n3)CC2)cc1` [compound 287], under setting [1], the class was 3 (Class 3 The value of percent of control at 10^−7 M was more than 60% or the value of IC50 was more than 200 nM.).
As for `COC(=O)NC[C@H]1CC[C@@H](Nc2nc3c(c(N(C)C)n2)CCCC3)CC1` [compound 1615], the class under setting [2] is recorded as 3 (Class 3 The value of percent of control at 10^−7 M was more than 60% or the value of IC50 was more than 200 nM.).
As for `COc1cc(CNC[C@H]2CC[C@@H](Nc3nc4c(c(N(C)C)n3)CCCC4)CC2)cc(OC)c1O` [compound 1375], the class under setting [1] is 3 (Class 3 The value of percent of control at 10^−7 M was more than 60% or the value of IC50 was more than 200 nM.).
In the case of `COc1cccc(C(=O)N[C@H]2CC[C@@H](Nc3nc(C)c(C)c(N(C)C)n3)CC2)c1` [compound 2824, N-(cis-4-{[4-(dimethylamino)-5,6-dimethylpyrimidin-2-yl]amino}cyclohexyl)-3-methoxybenzamide], under setting [3], the class is 1 (Class 1: The value of percent of control at 10^−7 M was less than 40% or the value of IC50 was less than 50 nM.).
For the compound `CN(C)c1nc(N[C@H]2CC[C@@H](NC(=S)Nc3ccc(I)cc3)CC2)nc2c1CCCC2` [compound 1752], the class under setting [1] was 2 (Class 2: The value of percent of control at 10^−7 M was from 40% to 60% or the value of IC′50 was from 50 nM to 200 nM.).
The same measure, in the same setting: for `CCCCOc1ccc(NC(=O)N[C@H]2CC[C@@H](Nc3nc4c(c(N(C)C)n3)CCCC4)CC2)cc1` [compound 1896] the value was 3 (Class 3 The value of percent of control at 10^−7 M was more than 60% or the value of IC50 was more than 200 nM.).
As for `CN(C)c1nc(N[C@H]2CC[C@@H](CNC(=O)Nc3ccccc3Cl)CC2)nc2c1CCCC2` [compound 2451], the class under setting [4] is reported as 3 (Class 3 The value of percent of control at 10^−7 M was more than 60% or the value of IC50 was more than 200 nM.).
Take `Cc1cc(N(C)C)nc(N[C@H]2CC[C@@H](C(=O)NCc3cccc(F)c3F)CC2)n1` [compound 2820, cis-N-(2,3-difluorobenzyl)-4-{[4-(dimethylamino)-6-methylpyrimidin-2-yl]amino}cyclohexanecarboxamide]: under setting [3], the class is listed as 1 (Class 1: The value of percent of control at 10^−7 M was less than 40% or the value of IC50 was less than 50 nM.).
`Cc1cc(NC(=O)N[C@H]2CC[C@@H](Nc3nc4c(c(N(C)C)n3)CCCC4)CC2)ccc1Br` [compound 1885]: the class under setting [1] is listed as 3 (Class 3 The value of percent of control at 10^−7 M was more than 60% or the value of IC50 was more than 200 nM.).
As for `Cc1cc(Br)cc(C)c1NC(=O)N[C@H]1CC[C@@H](Nc2nccc(N(C)C)n2)CC1` [compound 2210, N-(4-bromo-2,6-dimethylphenyl)-N′-(cis-4-{[4-(dimethylamino)pyrimidin-2-yl]amino}cyclohexyl)urea], the class under setting [1] was 1 (Class 1: The value of percent of control at 10^−7 M was less than 40% or the value of IC50 was less than 50 nM.).
Turning to `CN(C)c1nc(N[C@H]2CC[C@@H](CNC(=O)NCc3ccccc3Cl)CC2)nc2c1CCCC2` [compound 2467], the class under setting [4] was 3 (Class 3 The value of percent of control at 10^−7 M was more than 60% or the value of IC50 was more than 200 nM.).
With `CN(C)c1nc(N[C@H]2CC[C@@H](NC(=O)Nc3ccccc3C(C)(C)C)CC2)nc2c1CCCC2` [compound 1684], under setting [2], the class was 3 (Class 3 The value of percent of control at 10^−7 M was more than 60% or the value of IC50 was more than 200 nM.).
Consider `Cc1cc(C)c(NC(=S)N[C@H]2CC[C@@H](Nc3cc(N(C)C)c4ccccc4n3)CC2)c(C)c1` [compound 2275, N-(cis-4-{[4-(dimethylamino)quinolin-2-yl]amino}cyclohexyl)-N′-mesitylthiourea], for which the class under setting [1] is on record as 1 (Class 1: The value of percent of control at 10^−7 M was less than 40% or the value of IC50 was less than 50 nM.).
